Test results as given in patent publication US8772463B2, “Fluorescent dye-labeled glucose bioprobe, synthesis method and usage thereof” (SNU R&DB Foundation, priority 2007, dated 2014).

Experiments:
A549 cells [1] = assay: Probe uptake by A549 cells, inverted fluorescent microscope (α/β anomers, alanine, 2-NBDG comparison); assay type: cell-based, human
Protocol: (§1) 1×10^4 cells were cultured on a Lab-Tek glass chamber slide (Nalge Nunc International, Naperville, Ind., USA) in 35 mm cell culture dish. After 24 h, the cells were treated for each experimental purpose. Then, the medium was replaced with RPMI 1640 medium containing 12.5 μM of Cy3-Glc-α. The cells were exposed to Cy3-Glc-α for 40 min, then washed with PBS 3 times. Finally, the glass chamber slide was taken from culture dish and loaded on the fluorescence microscope (Axiovert 200, Carl Zeiss, Germany). Fluorescence images of 35-50 cells were taken by CCD camera (Axiocam MRm, Germany) and fluorescence intensity of each cell was measured by Axiovision (program for data analysis). An area as ROIs (regions of interest) which contains a cell in phase-contrast image was drawn using Axiovision. Axiovision analyzed CCD camera images and provided the digitized mean of fluorescence intensity in the ROIs that the present inventors had established. The present inventors subtracted the background intensity from the fluorescence intensity to get the fluorescence intensity value that a cell contained. With the method described above, the present inventors digitized fluorescence intensity and performed various experiments.
To confirm the above hypothesis, real-time uptake of Cy3-Glc-α was measured, and the results were compared to those of Cy3-Glc-β by live imaging of A549 cells by using inverted fluorescent microscope. […] This led the present inventors to the conclusion that the stereochemistry at the C-1 anomeric position definitely influences the efficiency of mimicking glucose, and this might be due to the binding orientation of D-glucose in GLUTs [P. W. Hruz, M. M. Mueckler, Mole. Memb. Biol. 2001, 18, 183-193].
The cellular uptake of 2-NBDG was not detected under identical experimental conditions used for Cy3-Glc-α. […] To achieve the fluorescence intensity with 2-NBDG to 80% that of Cy3-Glc-α, a 10 fold increase in 2-NBDG concentration and a 20 fold increase in the lens exposure time in D-glucose-depleted medium were needed.
In addition, the cellular uptake of 2-NBDG in normal media (containing 10 mM D-glucose) was extremely low (>60% uptake reduction in normal media) and was hardly detected using fluorescent based imaging methods [R. G. O'Neil, L. Wu, N. Mullani, Mol. Imaging Biol. 2005, 7, 388-392]. 2-NBDG was detectable only in glucose-depleted media, and this means a critical limitation of bioapplication of 2-NBDG in the biologically significant environments. In comparison with 2-NBDG, the reduction of Cy3-Glc-α uptake in glucose-containing media was only 5% compared to that in glucose-depleted media (FIG. 18). Therefore, it was confirmed that Cy3-Glc-α was capable of being applied to a bioassay system regardless of glucose starvation.

A549 cells [2] = assay: Direct competition of Cy3-Glc-α uptake with D-glucose / L-glucose; assay type: cell-based, human; conditions: 37° C.
Protocol: as §1, with “experiments. […]” for “experiments.”

NIH/3T3 cells = assay: FACS-based flow cytometric analysis of probe uptake with/without 11 mM D-glucose; assay type: cell-based, murine; conditions: probe 5 μM; glucose-depleted condition normalized to 100
Protocol: FACS (Fluorescence Activated Cell Sorting)-based flow cytometric analysis was used to compare cellular uptake efficiency in NIH/3T3 cells among the glucose probe [2-(N-Cy3-piperazinoethyl)]-α-D-glucose (GB2-Cy3), synthesized in Example 2, the conventional fluorescent glucose probe 2-NBDG and the glucose probe Cy3-Glc-α, synthesized in Example 1.
NIH/3T3 cells were cultured on 10 cm cell culture dishes and transferred in a volume of 3×10^5 cells into each FACS tube (5 mL, BD). They were washed once with cold PBS before incubation at 37° C. for 30 min in 11 mM D-glucose-containing PBS or glucose-free PBS in the presence of the bioprobe [GB2-Cy3 (5 μM), 2-NBDG (5 μM or 50 μM) or Cy3-Glc-α (5 μM)]. Cells that were incubated without the bioprobes were used as a negative control. After being washed with cold PBS, 1×10^4 NIH/3T3 cells were analyzed on FACSCalibur™ (FACS-based flow cytometer). GBs-Cy3 was detected by FL2 channels. Raw data of 1×10^4 cells are shown in histograms, with the mean values thereof given in the graph of FIG. 21.

A549 cells [3] = assay: Fluorescence imaging analysis of competitive probe uptake; assay type: cell-based, human; conditions: probe 12.5 μM
Protocol: Also, NIH/3T3, A549, C2C12 and 3T3/L1 cells, each having a population of 4×10^4 cells, were cultured on 35 mm cell culture dishes (BD Falcon™ Cell Culture Dish; BD Bioscience, CA, USA). Two days later, the cell culture medium was replaced with a glucose-depleted medium (DMEM, glucose free, GIBCO) supplemented with 0 mM, 11 mM or 55 mM D-glucose and 10 μM GB2-Cy3. After incubation at 37° C. for 30 min, the cells on the cover slips in the 35-mm cell culture dishes were washed twice with cold PBS and the cover slips were mounted on the caster of a fluorescence microscope (Olympus IX71). During observation under the fluorescence microscope, the cells were maintained at 37° C. in the chamber. Fluorescence images of 35-50 cells were taken by CCD camera (Axiocam MRm, Germany) and each cell was measured for fluorescence intensity using the image data analysis program Image-Pro® Plus (MediaCybernetics, USA). As ROIs (regions of interest), areas which encompassed cells within phase-contrast images were drawn using Image-Pro® Plus. Image-Pro® Plus analyzed CCD camera images to produce the digitized mean of fluorescence intensity within the ROIs that the present inventors had established. The background intensity was subtracted from the detected fluorescence intensity to give the fluorescence intensity value that a cell contained. In this manner, the fluorescence intensity was digitized for performing various experiments.
NIH/3T3 and A549 cells were cultured on microscope cover glasses in 35 mm cell culture dishes and subjected to fluorescence imaging analysis according to the protocol.

C[N+]1=C(/C=C/C=C2/N(CCCCC(=O)NCCOCCOCCNCCOC3OC(CO)C(O)C(O)C3O)c3ccccc3C2(C)C)C(C)(C)c2ccccc21 [Cy3-Glc-α, [2-(N-Cy3-3,6-dioxaoctane-1,8-diaminoethyl)]-α-D-glucose]
uptake efficiency with or without alanine (osmotic pressure) (A549 cells [1]; 55 mM alanine in media): no difference in the uptake efficiency | reduction of uptake in glucose-containing media compared to glucose-depleted media (A549 cells [1]; A549 cells): 5% | uptake of Cy3-Glc-α superior to that of Cy3-Glc-β (A549 cells [1]; A549 cells, live imaging): 40% | uptake versus L-glucose in the medium (A549 cells [2]; 50 mM L-glucose): not influenced by the concentration of L-glucose | uptake versus concentration of D-glucose in the medium (A549 cells [2]; RPMI 1640 lacking glucose, 10 mM or 50 mM D-glucose): decreased as the concentration of D-glucose in the medium increased | reduction in cellular uptake due to 11 mM D-glucose (NIH/3T3 cells): about 50% | cellular uptake versus D-glucose concentration (A549 cells [3]): decreased in the cellular uptake of the glucose analogues in D-glucose dose-dependent manners | change in the fluorescent intensity of ROIs when D-glucose changed from 10 mM to 55 mM (A549 cells [3]): approximately 5% | fluorescent intensity of treated cells, GB2-Cy3 normalized to 100 (A549 cells [3]): 4
